In patent US20170252442A1, “PHOTOHEXER COMPOUNDS AND PHARMACEUTICAL COMPOSITION AND USE THEREOF” (RAINBOW PHARMATECH LLC, priority 2014, published 2017):

Key:
CT26 cells = assay: MTT assay, photodynamic therapy on CT26 cells; format: cell-based, murine
Excerpt: (§1) The cells in logarithmic growth phase were collected and inoculated on 24-well culture plates. When reaching 70%-80% confluence, cells were divided randomly into the following groups: control (the parallel control group without photosensitizer and irradiation), irradiation (irradiation treatment alone without photosensitizer); (photosensitizer treatment alone without irradiation), photodynamic treatment (treatment by photosensitizer in combination with irradiation). For the photosensitizer alone treatment group and photodynamic treatment group, an appropriate amount of Photohexer-1 (P-1) or Photohexer-2 (P-2) was respectively added away from light to give a final concentration of 0.8, 1.6, 3.2, 6.4 μM. Each group set 3 replicates. Cells were incubated with the active agent, different treatments were carried out according to the grouping. […] After treatment and digestion of each group of cells, it was inoculated into a 96-well plate at 100 μL/well, and four wells were set for each treatment. MTT assay was performed after 24 h from inoculation: 20 μL MTT solution was added to each well under the condition away from light, and the culture was continued for 4 hours. 150 μL DMSO was added to each well after discarding the supernatant. After 15 min of dissolution, the absorbance value (OD value) was measured using a microplate reader and the relative survival rate of cells was calculated according to the following formula: […]

4T1 transplanted tumors = assay: Tumor-inhibition effect of P1 and P2-PDT on 4T1 xenografted mice; format: in vivo, Balb/c mice; conditions: for tumor inhibition rate: day 22 after treatment
Protocol: Experimental groups: blank control (2 mice), P-1 alone treatment (4 mg/kg, 8 mice), P-2 alone treatment (2 mg/kg, 8 mice), P-1 treatment (2 mg/kg, 4 mg/kg, 8 mice/group) combined with light irradiations, P-2 treatment (1 mg/kg, 2 mg/kg, 4 mg/kg, 8 mice/group) combined with light irradiations, 66 Balb/c mice in total.

7721 cells = assay: MTT assay, photodynamic therapy on 7721 cells; format: cell-based, human
Excerpt: as §1

[1] = Storage stability determination; format: physicochemical; conditions: 3 months of storage in dark at 2-4
Protocol: The storage stability of Photohexer-1 and Photohexer-2 was determined by conventional methods in the art.

Eca-109 cells = assay: MTT assay, photodynamic therapy on Eca-109 cells; format: cell-based, human
Excerpt: as §1

MDA-MB-231 cells = assay: MTT assay, photodynamic therapy on MDA-MB-231 cells; format: cell-based, human
Excerpt: as §1

the cell lines = assay: MTT assay, summary over the cell lines (photosensitizer alone); format: cell-based; conditions: without light irradiation; selected drug concentration range (0.8-6.4 μM)
Excerpt: The cells in logarithmic growth phase were collected and inoculated on 24-well culture plates. When reaching 70%-80% confluence, cells were divided randomly into the following groups: control (the parallel control group without photosensitizer and irradiation), irradiation (irradiation treatment alone without photosensitizer); (photosensitizer treatment alone without irradiation), photodynamic treatment (treatment by photosensitizer in combination with irradiation). For the photosensitizer alone treatment group and photodynamic treatment group, an appropriate amount of Photohexer-1 (P-1) or Photohexer-2 (P-2) was respectively added away from light to give a final concentration of 0.8, 1.6, 3.2, 6.4 μM. Each group set 3 replicates. Cells were incubated with the active agent, different treatments were carried out according to the grouping. Three different light intensities were selected for the photodynamic treatment group, which were 2.6, 5.2 and 12.4 J/cm^2, respectively. After treatment and digestion of each group of cells, it was inoculated into a 96-well plate at 100 μL/well, and four wells were set for each treatment. […] After 15 min of dissolution, the absorbance value (OD value) was measured using a microplate reader and the relative survival rate of cells was calculated according to the following formula: […]

Caco2 cells = assay: MTT assay, photodynamic therapy on Caco2 cells; format: cell-based, human
Excerpt: as §1

[2] = 0.8 μM alone treatment, without irradiation
[3] = 0.8 μM combined with 2.6 J/cm^2 light irradiation
[4] = 0.8 μM combined with 5.2 J/cm^2 light irradiation
[5] = 0.8 μM combined with 10.4 J/cm^2 light irradiation
[6] = 1.6 μM alone treatment, without irradiation
[7] = 1.6 μM combined with 2.6 J/cm^2 light irradiation
[8] = 1.6 μM combined with 5.2 J/cm^2 light irradiation
[9] = 1.6 μM combined with 10.4 J/cm^2 light irradiation
[10] = 3.2 μM alone treatment, without irradiation
[11] = 3.2 μM combined with 2.6 J/cm^2 light irradiation
[12] = 3.2 μM combined with 5.2 J/cm^2 light irradiation
[13] = 3.2 μM combined with 10.4 J/cm^2 light irradiation
[14] = 6.4 μM alone treatment, without irradiation
[15] = 6.4 μM combined with 2.6 J/cm^2 light irradiation
[16] = 6.4 μM combined with 5.2 J/cm^2 light irradiation
[17] = 6.4 μM combined with 10.4 J/cm^2 light irradiation

## C=Cc1c(C)c2cc3nc(cc4[nH]c(cc5nc(cc1[nH]2)C(C)=C5C(C)OCCCCCC)c(C)c4CCC(=O)[O-])C(CCC(=O)[O-])=C3C.[Na+].[Na+] (centres unmarked) [Photohexer P-2, 4-(1-hexyloxyethyl)-6,7-bis(propionatesodium)-1,3,5,8-tetramethyl-2-vinylporphyrin]
CT26 cells
  photoactivity compared between P-1 and P-2: stronger than that of P-1
CT26 cells; [2]
  Cell survival rate: 94.08 ± 4.27%
CT26 cells; [3]
  Cell survival rate: 83.97 ± 3.96%
CT26 cells; [4]
  Cell survival rate: 82.55 ± 4.77%
CT26 cells; [5]
  Cell survival rate: 70.66 ± 4.66%
CT26 cells; [6]
  Cell survival rate: 92.09 ± 3.56%
CT26 cells; [7]
  Cell survival rate: 61.29 ± 2.78%
CT26 cells; [8]
  Cell survival rate: 49.85 ± 3.55%
CT26 cells; [9]
  Cell survival rate: 38.89 ± 3.86%
CT26 cells; [10]
  Cell survival rate: 76.30 ± 2.28%
CT26 cells; [11]
  Cell survival rate: 44.29 ± 2.41%
CT26 cells; [12]
  Cell survival rate: 39.69 ± 2.27%
CT26 cells; [13]
  Cell survival rate: 26.01 ± 2.38%
CT26 cells; [14]
  Cell survival rate: 50.49 ± 1.03%
CT26 cells; [15]
  Cell survival rate: 34.11 ± 1.02%
CT26 cells; [16]
  Cell survival rate: 28.61 ± 1.09%
CT26 cells; [17]
  Cell survival rate: 18.82 ± 1.01%
4T1 transplanted tumors; 2 mg/kg alone, without irradiation, 4T1 tumor-bearing mice
  toxic effects of photosensitizer alone: did not show significant toxic effects
4T1 transplanted tumors; 2 mg/kg combined with light irradiation (50 J/cm^2), 4T1 tumor-bearing mice
  tumor inhibition rate: 23.35%
4T1 transplanted tumors; 4 mg/kg combined with light irradiation (50 J/cm^2), 4T1 tumor-bearing mice
  tumor inhibition rate: 44.68%
4T1 transplanted tumors; combined with 50 J/cm^2 irradiation
  photosensitizer activity on growth of 4T1 transplanted tumors: obvious dose-dependent activity
4T1 transplanted tumors; combined with 50 J/cm^2 irradiation, 8th to 22nd days after treatment
  volume of tumor relative to control group: about half the size of tumors of control group
7721 cells; [2]
  Cell survival rate: 102.15 ± 4.07%
7721 cells; [3]
  Cell survival rate: 98.29 ± 4.01%
7721 cells; [4]
  Cell survival rate: 96.77 ± 3.76%
7721 cells; [5]
  Cell survival rate: 95.91 ± 3.95%
7721 cells; [6]
  Cell survival rate: 101.37 ± 3.36%
7721 cells; [7]
  Cell survival rate: 94.78 ± 3.88%
7721 cells; [8]
  Cell survival rate: 92.15 ± 3.64%
7721 cells; [9]
  Cell survival rate: 91.44 ± 3.73%
7721 cells; [10]
  Cell survival rate: 100.64 ± 2.98%
7721 cells; [11]
  Cell survival rate: 92.15 ± 3.76%
7721 cells; [12]
  Cell survival rate: 89.23 ± 3.35%
7721 cells; [13]
  Cell survival rate: 78.32 ± 3.19%
7721 cells; [14]
  Cell survival rate: 98.14 ± 2.53%
7721 cells; [15]
  Cell survival rate: 88.02 ± 3.59%
7721 cells; [16]
  Cell survival rate: 82.25 ± 2.79%
7721 cells; [17]
  Cell survival rate: 71.15 ± 2.91%
7721 cells; alone, without irradiation
  toxicity alone: no significant toxicity
7721 cells; combination with a certain amount of light
  cell toxicity with light: stronger cell toxicity
[1]
  storage stability (content change by HPLC test): no content change
Eca-109 cells; [2]
  Cell survival rate: 100.38 ± 4.27%
Eca-109 cells; [3]
  Cell survival rate: 96.96 ± 3.87%
Eca-109 cells; [4]
  Cell survival rate: 75.83 ± 4.22%
Eca-109 cells; [5]
  Cell survival rate: 59.89 ± 4.24%
Eca-109 cells; [6]
  Cell survival rate: 95.76 ± 3.16%
Eca-109 cells; [7]
  Cell survival rate: 86.66 ± 2.94%
Eca-109 cells; [8]
  Cell survival rate: 70.66 ± 3.78%
Eca-109 cells; [9]
  Cell survival rate: 51.36 ± 3.67%
Eca-109 cells; [10]
  Cell survival rate: 94.07 ± 2.58%
Eca-109 cells; [11]
  Cell survival rate: 79.33 ± 2.24%
Eca-109 cells; [12]
  Cell survival rate: 56.40 ± 2.33%
Eca-109 cells; [13]
  Cell survival rate: 40.90 ± 2.34%
Eca-109 cells; [14]
  Cell survival rate: 84.49 ± 1.32%
Eca-109 cells; [15]
  Cell survival rate: 83.57 ± 1.12%
Eca-109 cells; [16]
  Cell survival rate: 33.91 ± 1.07%
Eca-109 cells; [17]
  Cell survival rate: 33.91 ± 1.01%
MDA-MB-231 cells
  sensitivity compared between P-1 and P-2: more sensitive than P-1
MDA-MB-231 cells; [2]
  Cell survival rate: 100.17 ± 4.03%
MDA-MB-231 cells; [3]
  Cell survival rate: 87.82 ± 4.09%
MDA-MB-231 cells; [4]
  Cell survival rate: 71.8 ± 4.16%
MDA-MB-231 cells; [5]
  Cell survival rate: 52.23 ± 4.16%
MDA-MB-231 cells; [6]
  Cell survival rate: 97.69 ± 3.63%
MDA-MB-231 cells; [7]
  Cell survival rate: 73.80 ± 3.22%
MDA-MB-231 cells; [8]
  Cell survival rate: 49.35 ± 3.46%
MDA-MB-231 cells; [9]
  Cell survival rate: 45.69 ± 3.16%
MDA-MB-231 cells; [10]
  Cell survival rate: 91.44 ± 2.57%
MDA-MB-231 cells; [11]
  Cell survival rate: 59.92 ± 2.94%
MDA-MB-231 cells; [12]
  Cell survival rate: 46.57 ± 2.43%
MDA-MB-231 cells; [13]
  Cell survival rate: 40.31 ± 2.28%
MDA-MB-231 cells; [14]
  Cell survival rate: 81.55 ± 1.21%
MDA-MB-231 cells; [15]
  Cell survival rate: 49.18 ± 1.33%
MDA-MB-231 cells; [16]
  Cell survival rate: 40.03 ± 1.12%
MDA-MB-231 cells; [17]
  Cell survival rate: 31.15 ± 0.96%
The cell lines
  cytotoxicity of alone treatment: did not produce significant cytotoxicity
Caco2 cells; [2]
  Cell survival rate: 99.09 ± 4.27%
Caco2 cells; [3]
  Cell survival rate: 98.47 ± 3.69%
Caco2 cells; [4]
  Cell survival rate: 98.57 ± 4.26%
Caco2 cells; [5]
  Cell survival rate: 73.07 ± 3.86%
Caco2 cells; [6]
  Cell survival rate: 98.50 ± 3.63%
Caco2 cells; [7]
  Cell survival rate: 88.31 ± 2.67%
Caco2 cells; [8]
  Cell survival rate: 77.26 ± 3.66%
Caco2 cells; [9]
  Cell survival rate: 58.33 ± 2.60%
Caco2 cells; [10]
  Cell survival rate: 94.12 ± 2.54%
Caco2 cells; [11]
  Cell survival rate: 75.55 ± 2.01%
Caco2 cells; [12]
  Cell survival rate: 63.08 ± 2.35%
Caco2 cells; [13]
  Cell survival rate: 47.94 ± 2.31%
Caco2 cells; [14]
  Cell survival rate: 88.45 ± 1.44%
Caco2 cells; [15]
  Cell survival rate: 64.87 ± 1.13%
Caco2 cells; [16]
  Cell survival rate: 43.88 ± 1.14%
Caco2 cells; [17]
  Cell survival rate: 37.06 ± 1.54%
Caco2 cells; dependent on concentration and light intensity
  killing effect of photodynamic therapy: good killing effect
